From patent US11274098B2, “Tricyclic compounds for use in treatment of proliferative disorders” (ARGONAUT THERAPEUTICS LIMITED, priority 2017, dated 2022)

target: human PRMT5/MEP50 (Homo sapiens (Human), UniProt O14744); assay: PRMT5 chemiluminescent assay; format: biochemical; settings: human PRMT5/MEP50 expressed in HEK293 cells; biotinylated histone peptide substrate; 60 min reaction; chemiluminescent readout
Procedure: A PRMT5 chemiluminescent assay was used to measure the […] activity of PRMT5. Biotinylated histone peptides were synthesized and attached to 384-well plates. Compound serial dilutions were performed and added to the assay plate. Histone H4 monomethyl R^3 antibody was obtained from Abcam. A master mix for each well was prepared and human PRMT5/MEP50 (expressed in HEK293 cells) diluted in assay buffer to a concentration of 5 ng/μL. The reaction was incubated and slowly rotated for 60 minutes at the point of PRMT5/MEP50 addition. The supernatant from the wells was removed and blocking buffer was added to each well and rotated for 10 minutes. The primary antibody was diluted and added to every well for 60 minutes, before it was removed and the wells washed. The horse radish peroxidase (HRP)-coupled secondary antibody was diluted and added to each well with an incubation time of 30 minutes. The HRP chemiluminescent substrate was added to every well. The plate was read on a Flourstar Omega BMG Labtech instrument (Ortenberg, Germany) and the analysis of IC50 was performed using the Flourstar Omega BMG Labtech software.

human PRMT5/MEP50, sequence (O14744 whole entry): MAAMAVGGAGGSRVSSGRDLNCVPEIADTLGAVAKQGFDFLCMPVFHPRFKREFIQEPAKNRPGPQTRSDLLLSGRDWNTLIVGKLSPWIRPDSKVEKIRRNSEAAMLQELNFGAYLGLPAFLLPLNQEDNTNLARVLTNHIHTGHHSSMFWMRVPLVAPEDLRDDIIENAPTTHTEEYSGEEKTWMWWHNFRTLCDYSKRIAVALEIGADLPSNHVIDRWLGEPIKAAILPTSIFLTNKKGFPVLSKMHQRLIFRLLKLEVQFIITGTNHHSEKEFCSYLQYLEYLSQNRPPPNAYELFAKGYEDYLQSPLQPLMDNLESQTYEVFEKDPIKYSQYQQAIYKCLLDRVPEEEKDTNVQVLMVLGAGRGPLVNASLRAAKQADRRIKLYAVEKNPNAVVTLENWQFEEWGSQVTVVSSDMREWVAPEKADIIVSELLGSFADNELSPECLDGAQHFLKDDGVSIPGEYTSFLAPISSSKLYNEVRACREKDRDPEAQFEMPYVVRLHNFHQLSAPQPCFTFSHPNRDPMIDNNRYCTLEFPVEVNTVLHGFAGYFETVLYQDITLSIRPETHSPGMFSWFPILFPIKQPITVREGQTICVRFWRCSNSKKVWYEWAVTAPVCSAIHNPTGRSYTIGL
human PRMT5/MEP50, sequence (Q9BQA1 whole entry partner): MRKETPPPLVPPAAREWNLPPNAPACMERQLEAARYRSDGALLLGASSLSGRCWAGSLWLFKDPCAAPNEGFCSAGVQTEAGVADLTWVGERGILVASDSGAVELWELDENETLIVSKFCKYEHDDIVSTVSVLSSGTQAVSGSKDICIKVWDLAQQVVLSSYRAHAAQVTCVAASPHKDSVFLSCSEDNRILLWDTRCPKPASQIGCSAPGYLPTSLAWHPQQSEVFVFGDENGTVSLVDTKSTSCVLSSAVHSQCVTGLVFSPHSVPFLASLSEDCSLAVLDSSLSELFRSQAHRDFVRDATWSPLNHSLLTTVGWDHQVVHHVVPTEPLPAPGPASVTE

First: CN1CCN(c2cc(C(=O)NCC(O)CN3CCc4[nH]c5ccccc5c4C3)cc(NC3CCC3)n2)CC1 (stereo not drawn) [Example 2, 2-(cyclobutylamino)-N-(2-hydroxy-3-{1H,2H,3H,4H,5H-pyrido[4,3-b]indol-2-yl}propyl)-6-(4-methylpiperazin-1-yl)pyridine-4-carboxamide]
Second: CN1CCN(c2cc(C(=O)NCC(O)CN3CCc4c([nH]c5ccccc45)C3)cc(NC3CCC3)n2)CC1 (stereo not drawn) [Example 10, 2-(cyclobutylamino)-N-(2-hydroxy-3-{1H,2H,3H,4H,9H-pyrido[3,4-b]indol-2-yl}propyl)-6-(4-methylpiperazin-1-yl)pyridine-4-carboxamide]
The IC50 of the first is 12-fold higher: 0.771 µM for the first, 0.067 µM for the second. The second is the more potent here.

Going from CC(=O)N1CCC(Nc2cc(C(=O)NCC(O)CN3CCc4[nH]c5ccccc5c4C3)ncn2)CC1 (stereo not drawn) [Example 4, 6-[(1-acetylpiperidin-4-yl)amino]-N-(2-hydroxy-3-{1H,2H,3H,4H,5H-pyrido[4,3-b]indol-2-yl}propyl)pyrimidine-4-carboxamide] to CC(=O)N1CCC(Nc2cc(C(=O)NCC(O)CN3CCc4c([nH]c5ccccc45)C3)ncn2)CC1 (stereo not drawn) [Example 12, 6-[(1-acetylpiperidin-4-yl)amino]-N-(2-hydroxy-3-{1H,2H,3H,4H,9H-pyrido[3,4-b]indol-2-yl}propyl)pyrimidine-4-carboxamide], the IC50 falls from 0.542 µM to 0.086 µM (6.3-fold).

Going from CN1CCN(c2nc(NC3CCC3)cc(C(=O)NCC(O)CN3CCc4c(c5ccccc5n4C)C3)n2)CC1 (stereo not drawn) [Example 6, 6-(cyclobutylamino)-N-(2-hydroxy-3-{5-methyl-1H,2H,3H,4H,5H-pyrido[4,3-b]indol-2-yl}propyl)-2-(4-methylpiperazin-1-yl)pyrimidine-4-carboxamide] to CN1CCN(c2nc(NC3CCC3)cc(C(=O)NCC(O)CN3CCc4c(n(C)c5ccccc45)C3)n2)CC1 (stereo not drawn) [Example 15, 6-(cyclobutylamino)-N-(2-hydroxy-3-{9-methyl-1H,2H,3H,4H,9H-pyrido[3,4-b]indol-2-yl}propyl)-2-(4-methylpiperazin-1-yl)pyrimidine-4-carboxamide], the IC50 rises from 0.108 µM to 0.477 µM (4.4-fold). The first is the more potent here.

CN1CCN(c2cc(C(=O)NCC(O)CN3CCc4c(c5ccccc5n4C)C3)cc(NC3CCC3)n2)CC1 (stereo not drawn) [Example 7, 2-(cyclobutylamino)-N-(2-hydroxy-3-{5-methyl-1H,2H,3H,4H,5H-pyrido[4,3-b]indol-2-yl}propyl)-6-(4-methylpiperazin-1-yl)pyridine-4-carboxamide] and CN1CCN(c2cc(C(=O)NCC(O)CN3CCc4c(n(C)c5ccccc45)C3)cc(NC3CCC3)n2)CC1 (stereo not drawn) [Example 16, 2-(cyclobutylamino)-N-(2-hydroxy-3-{9-methyl-1H,2H,3H,4H,9H-pyrido[3,4-b]indol-2-yl}propyl)-6-(4-methylpiperazin-1-yl)pyridine-4-carboxamide] are within 1.5-fold of each other in IC50: 0.322 µM for the first, 0.286 µM for the second.

Going from CN1CCN(c2nc(NC3CCC3)cc(C(=O)NCC(O)CN3CCc4c([nH]c5ccccc45)C3)n2)CC1 (stereo not drawn) [Example 9, 6-(cyclobutylamino)-N-(2-hydroxy-3-{1H,2H,3H,4H,9H-pyrido[3,4-b]indol-2-yl}propyl)-2-(4-methylpiperazin-1-yl)pyrimidine-4-carboxamide] to O=C(NCC(O)CN1CCc2c([nH]c3ccccc23)C1)c1cc(NC2CCC2)ncn1 (stereo not drawn) [Example 11, 6-(Cyclobutylamino)-N-(2-hydroxy-3-{1H,2H,3H,4H,9H-pyrido[3,4-b]indol-2-yl}propyl)pyrimidine-4-carboxamide], the IC50 rises from 0.148 µM to 0.459 µM (3.1-fold).

O=C(NCC(O)CN1CCc2c([nH]c3ccccc23)C1)c1ccc(C(=O)N2CCOCC2)cc1 (stereo not drawn) [Example 13, N-(2-hydroxy-3-{1H,2H,3H,4H,9H-pyrido[3,4-b]indol-2-yl}propyl)-4-[(morpholin-4-yl)carbonyl]benzamide] and O=C(NCC(O)CN1CCc2c([nH]c3ccccc23)C1)c1ccc(C(=O)N2C3CCC2COC3)cc1 (stereo not drawn) [Example 14, N-(2-hydroxy-3-{1H,2H,3H,4H,9H-pyrido[3,4-b]indol-2-yl}propyl)-4-({3-oxa-8-azabicyclo[3.2.1]octan-8-yl}carbonyl)benzamide] are within 1.5-fold of each other in IC50: 2.04 µM for the first, 1.63 µM for the second.

Compared with Cn1c2c(c3ccccc31)CCN(CC(O)CNC(=O)c1cc(NC3CCC3)ncn1)C2 (stereo not drawn) [Example 17, 6-(cyclobutylamino)-N-(2-hydroxy-3-{9-methyl-1H,2H,3H,4H,9H-pyrido[3,4-b]indol-2-yl}propyl)pyrimidine-4-carboxamide], CC(=O)N1CCC(Nc2cc(C(=O)NCC(O)CN3CCc4c(n(C)c5ccccc45)C3)ncn2)CC1 (stereo not drawn) [Example 18, 6-[(1-acetylpiperidin-4-yl)amino]-N-(2-hydroxy-3-{9-methyl-1H,2H,3H,4H,9H-pyrido[3,4-b]indol-2-yl}propyl)pyrimidine-4-carboxamide] is 3.9-fold lower in IC50: 8.04 µM for the first, 2.05 µM for the second.

Going from Cn1c2c(c3ccccc31)CCN(CC(O)CNC(=O)c1ccc(C(=O)N3C4CCC3COC4)cc1)C2 (stereo not drawn) [Example 19, N-(2-hydroxy-3-{9-methyl-1H,2H,3H,4H,9H-pyrido[3,4-b]indol-2-yl}propyl)-4-({3-oxa-8-azabicyclo[3.2.1]octan-8-yl}carbonyl)benzamide] to CC(=O)N1CCC(Nc2cc(C(=O)NC[C@H](O)CN3CCc4c([nH]c5ccccc45)C3)ncn2)CC1 [Example 26, (S)-6-((1-acetylpiperidin-4-yl)amino)-N-(2-hydroxy-3-(1,3,4,9-tetrahydro-2H-pyrido [3,4-b]indol-2-yl)propyl)pyrimidine-4-carboxamide], the IC50 falls from 26.9 µM to 0.01 µM (2700-fold). The second is the more potent here.

Going from O=C(OCC(O)CN1CCc2c([nH]c3ccccc23)C1)N1CCC(c2ccccc2)C1 (stereo not drawn) [Example 20, 2-hydroxy-3-(1,3,4,9-tetrahydro-2H-pyrido[3,4-b]indol-2-yl)propyl 3-phenylpyrrolidine-1-carboxylate] to O=C(NCC(O)CN1CCc2c([nH]c3ccccc23)C1)N1CCC(c2ccccc2)C1 (stereo not drawn) [Example 23, N-(2-hydroxy-3-(1,3,4,9-tetrahydro-2H-pyrido[3,4-b]indol-2-yl)propyl)-3-phenyl pyrrolidine-1-carboxamide], the IC50 rises from 10.5 µM to 75.7 µM (7.2-fold).

Compared with O=C(OCC(O)CN1CCc2c([nH]c3ccccc23)C1)N1CCc2ccccc2C1 (stereo not drawn) [Example 21, 2-Hydroxy-3-(1,3,4,9-tetrahydro-2H-pyrido[3,4-b]indol-2-yl)propyl 3,4-dihydroisoquinoline-2(1H)-carboxylate], O=C(NCC(O)CN1CCc2c([nH]c3ccccc23)C1)N1CCc2ccccc2C1 (stereo not drawn) [Example 22, N-(2-hydroxy-3-(1,3,4,9-tetrahydro-2H-pyrido[3,4-b]indol-2-yl)propyl)-3,4-dihydroisoquinoline-2(1H)-carboxamide] is 3.4-fold higher in IC50: 6.19 µM for the first, 21 µM for the second.

Compared with O=C(NCC(O)CN1CCc2c([nH]c3ccccc23)C1)N1CCCC(c2ccccc2)C1 (stereo not drawn) [Example 24, N-(2-hydroxy-3-(1,3,4,9-tetrahydro-2H-pyrido[3,4-b]indol-2-yl)propyl)-3-phenylpiperidine-1-carboxamide], CC(=O)N1CCC(Nc2cc(C(=O)NC[C@@H](O)CN3CCc4c([nH]c5ccccc45)C3)ncn2)CC1 [Example 27, (R)-6-((1-acetylpiperidin-4-yl)amino)-N-(2-hydroxy-3-(1,3,4,9-tetrahydro-2H-pyrido [3,4-b]indol-2-yl)propyl)pyrimidine-4-carboxamide] is 340-fold lower in IC50: 53.7 µM for the first, 0.158 µM for the second. The second is the more potent here.

Compared with CC(=O)N1CCC(Nc2cc(C(=O)NCCCN3CCc4c([nH]c5ccccc45)C3)ncn2)CC1 [Example 25, 6-((1-acetylpiperidin-4-yl)amino)-N-(3-(1,3,4,9-tetrahydro-2H-pyrido[3,4-b]indol-2-yl)propyl)pyrimidine-4-carboxamide], CC(=O)N1CCC(Nc2cc(C(=O)NCC(O)CN3CCn4c(cc5ccccc54)C3)ncn2)CC1 (stereo not drawn) [Example 28, 6-((1-acetylpiperidin-4-yl)amino)-N-(3-(3,4-dihydropyrazino[1,2-a]indol-2(1H)-yl)-2-hydroxypropyl)pyrimidine-4-carboxamide] is 2.2-fold lower in IC50: 0.099 µM for the first, 0.045 µM for the second. The second is the more potent here.
